Here are results for 5 compounds from patent US20060293307A1, “Oxazolidinone derivatives as antimicrobials” (priority 2002, published 2006).

The test system of data set [1] is M. avium intracellulare 540/96. Description: MIC against MAC strains, agar dilution. The following applies: S. No. 12 Mai-4, M. avium intracellulare 540/96, Middle Brook 7H10 + OADC, 37° C., 14-21 days. Type of data set: cell-based. On the technique in general: Agar dilution tests growth on a series of plates holding different concentrations.
Data set [2] deals with M. tuberculosis V-591. Description: MIC against M. tuberculosis strains, agar dilution. As to conditions: Middle Brook 7H10 + OADC, 37° C., 14-21 days. Type of data set: cell-based, Mycobacterium tuberculosis.
In data set [3] the test system is M. tuberculosis M-66. As to the kind of experiment: MIC against M. tuberculosis strains, agar dilution. Format: cell-based, Mycobacterium tuberculosis. As to conditions: Middle Brook 7H10 + OADC, 37° C., 14-21 days.
The subject of data set [4] is M. intracellulare B-78/3. As to the kind of experiment: MIC against MAC strains, agar dilution. The following applies: S. No. 09 Mi-4, M. intracellulare B-78/3, Middle Brook 7H10 + OADC, 37° C., 14-21 days. Type of data set: cell-based.
Data set [5] concerns M. tuberculosis PC. Description: MIC against M. tuberculosis strains, agar dilution. The following applies: S. No. 16 Mt-, Middle Brook 7H10 + OADC, 37° C., 14-21 days. Format: cell-based, Mycobacterium tuberculosis.
The test system of data set [6] is M. tuberculosis SGPGI. Description: MIC against M. tuberculosis strains, agar dilution. Type of data set: cell-based, Mycobacterium tuberculosis. As to conditions: S. No. 05 Mt-, Middle Brook 7H10 + OADC, 37° C., 14-21 days.
The test system of data set [7] is M. avium intracellulare 356/97. Description: MIC against MAC strains, agar dilution. Format: cell-based. As to conditions: S. No. 10 Mai-1, M. avium intracellulare 356/97, Middle Brook 7H10 + OADC, 37° C., 14-21 days.
For data set [8], the system named is M. tuberculosis M-149. Description: MIC against M. tuberculosis strains, agar dilution. Format: cell-based, Mycobacterium tuberculosis. As to conditions: Middle Brook 7H10 + OADC, 37° C., 14-21 days.
The test system of data set [9] is M. avium intracellulare 19/97. Description: MIC against MAC strains, agar dilution. Type of data set: cell-based. As to conditions: S. No. 17 Mai-10, M. avium intracellulare 19/97, Middle Brook 7H10 + OADC, 37° C., 14-21 days.
In data set [10] the test system is M. intracellulare ATCC 35761. As to the kind of experiment: MIC against MAC strains, agar dilution. Format: cell-based. As to conditions: S. No. 07 Mi-2, M. intracellulare ATCC 35761, Middle Brook 7H10 + OADC, 37° C., 14-21 days.
For data set [11], the system named is M. tuberculosis ATCC. Description: MIC against M. tuberculosis strains, agar dilution. Format: cell-based, Mycobacterium tuberculosis. As to conditions: S. No. 03 Mt-, Middle Brook 7H10 + OADC, 37° C., 14-21 days.
For data set [12], the system named is M. bovis ATCC 19210. Type of data set: cell-based. The following applies: S. No. 18 NTM, Middle Brook 7H10 + OADC, 37° C., 14-21 days.
Data set [13] concerns M. avium intracellulare 4. Description: MIC against MAC strains, agar dilution. Format: cell-based. As to conditions: S. No. 11 Mai-2, M. avium intracellulare 4, Middle Brook 7H10 + OADC, 37° C., 14-21 days.
In data set [14] the test system is M. tuberculosis PC 4793. Description: MIC against M. tuberculosis strains, agar dilution. The following applies: Middle Brook 7H10 + OADC, 37° C., 14-21 days. Format: cell-based, Mycobacterium tuberculosis.
Data set [15] relates to M. tuberculosis M-164. Description: MIC against M. tuberculosis strains, agar dilution. Format: cell-based, Mycobacterium tuberculosis. The following applies: Middle Brook 7H10 + OADC, 37° C., 14-21 days.
Data set [16] relates to M. avium intracellulare 559/97. Description: MIC against MAC strains, agar dilution. The following applies: S. No. 15 Mai-7, M. avium intracellulare 559/97, Middle Brook 7H10 + OADC, 37° C., 14-21 days. Type of data set: cell-based.
Data set [17] has as its system M. avium intracellulare 1211/96. As to the kind of experiment: MIC against MAC strains, agar dilution. The following applies: S. No. 13 Mai-5, M. avium intracellulare 1211/96, Middle Brook 7H10 + OADC, 37° C., 14-21 days. Format: cell-based.
Data set [18] relates to H. influenzae P318. Description: MIC against Haemophilus strains. Type of data set: cell-based. The following applies: Haemophilus influenzae; s. No. 10, H. influenzae P318; read-out: MIC.
The subject of data set [19] is H. influenzae 474. As to the kind of experiment: MIC against Haemophilus strains. Type of data set: cell-based. As to conditions: Haemophilus influenzae; s. No. 11, H. influenzae 474; read-out: MIC.
Data set [20] deals with Moraxella M6. Description: MIC, agar incorporation method. Type of data set: cell-based.
Data set [21] has as its system H. influenzae 451. Description: MIC against Haemophilus strains. Format: cell-based. As to conditions: Haemophilus influenzae; s. No. 8, H. influenzae 451; read-out: MIC.
Data set [22] deals with H. influenzae 1381. As to the kind of experiment: MIC against Haemophilus strains. Type of data set: cell-based. As to conditions: Haemophilus influenzae; s. No. 7, H. influenzae 1381; read-out: MIC.
For data set [23], the system named is 139. As to the kind of experiment: MIC, agar incorporation method. Type of data set: cell-based. In a few lines:
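Doubling dilutions of compound in DMSO were incorporated into Mueller-Hinton agar; 10^4 CFU/spot inoculated from 0.5 McFarland suspensions and incubated 18 h (24 h for MRSN studies). MIC = lowest concentration without visible growth; valid only when ATCC reference strains gave in-range MICs.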

Setting [24] is: Mycobacterium avium, read-out: MIC.
The mark [25] stands for this setting: Mycobacterium tuberculosis, V591, S. No. 13 Mt-, read-out: MIC.
[26] abbreviates: Mycobacterium tuberculosis, M66, S. No. 08 Mt-, read-out: MIC.
Where [27] appears, read: Mycobacterium tuberculosis, read-out: MIC.
Setting [28] is: Mycobacterium tuberculosis, M149, S. No. 15 Mt-, read-out: MIC.
[29] abbreviates: Mycobacterium tuberculosis, PC4793, S. No. 23 Mt-, read-out: MIC.
[30] abbreviates: Mycobacterium tuberculosis, M164, S. No. 10 Mt-, read-out: MIC.

≈ marks a conversion by molar mass, not a printed value. Where two headings read alike, the source gives them in different places.

What is called melting point is the temperature, or range, at which the solid turns liquid.

Regarding `CC[C@H]1OC(=O)[C@H](C)[C@@H](O[C@H]2C[C@@](C)(OC)[C@@H](O)[C@H](C)O2)[C@H](C)[C@@H](O[C@@H]2O[C@H](C)C[C@H](N(C)C)[C@H]2O)[C@](C)(OC)C[C@@H](C)C(=O)[C@H](C)[C@@H](O)[C@]1(C)O` [CLA], the MIC was greater than 32 µg/mL in data set [1]; 32 µg/mL in [2] (S. No. 13 Mt-); 16 µg/mL in data set [3] (S. No. 08 Mt-); 1.0 µg/mL in data set [4]; 8.0 µg/mL in [5]; 8.0 µg/mL in data set [6]. The MIC in data set [7] is 2.0 µg/mL; in [8] (S. No. 15 Mt-), 16 µg/mL; in data set [9], 32 µg/mL; in [10] it was 0.5 µg/mL; in data set [11], 32 µg/mL; in data set [12], 32 µg/mL. Also, the MIC was less than 0.25 µg/mL in [13]; 8.0 µg/mL in [14] (S. No. 23 Mt-); 16 µg/mL in data set [15] (S. No. 10 Mt-); 32 µg/mL in data set [16]; 0.25 µg/mL in [17].

Consider `CC(=O)NC[C@H]1CN(c2ccc(N3CCN(c4ccc([N+](=O)[O-])s4)CC3)c(F)c2)C(=O)O1` [Compound No. 1, (S)—N-[[3-[3-Fluoro-4-[4-(5-nitro-2-thienyl)-1-piperazinyl]phenyl]-2-oxo-5-oxazolidinyl]methyl]acetamide], for which the melting point lay within 171 to 174 °C. Besides, the MIC in data set [1] (setting [24]) is 1 µg/mL. For the same compound, the MIC in data set [2] (setting [25]) came out at 0.5 µg/mL. Moreover, the MIC in [18] was 16 µg/mL (≈ 34.5 µM). The MIC in data set [3] (setting [26]) was greater than 32 µg/mL. For the same compound, the MIC in data set [19] was 16 µg/mL (≈ 34.5 µM). Also, in data set [4] (Mycobacterium intracellulare, B78/3, read-out: MIC), the MIC was 0.25 µg/mL. Further, in data set [5] (setting [27]), the MIC was 0.25 µg/mL. For the same compound, the MIC in data set [6] (setting [27]) amounted to 0.25 µg/mL. Also, the MIC in data set [20] (S. No. 60, Moraxella M6, read-out: MIC) came out at 0.25 µg/mL (≈ 0.539 µM). The MIC in data set [7] (setting [24]) was determined as 0.25 µg/mL. Besides, the MIC in data set [8] (setting [28]) turned out to be 0.25 µg/mL. Also, the MIC in data set [21] came to 16 µg/mL (≈ 34.5 µM). Also, the MIC in data set [9] (setting [24]) was 0.25 µg/mL. For the same compound, the MIC in data set [22] came out at 8 µg/mL (≈ 17.3 µM). Besides, the MIC in data set [10] (Mycobacterium intracellulare, ATCC35761, read-out: MIC) is less than 0.12 µg/mL. The MIC in [13] (setting [24]) is less than 0.125 µg/mL. Further, the MIC in data set [23] worked out at 0.25 µg/mL (≈ 0.539 µM). In addition, the MIC in data set [14] (setting [29]) was greater than 32 µg/mL. For the same compound, the MIC in data set [15] (setting [30]) worked out at 0.5 µg/mL. The MIC in data set [16] (setting [24]) stood at 0.25 µg/mL. The MIC in data set [17] (setting [24]) came to 8 µg/mL.

With `CCc1cc(C(N)=S)ccn1` [ETH], the MIC was 32 µg/mL in data set [1]; greater than 32 µg/mL in data set [2] (S. No. 13 Mt-); greater than 32 µg/mL in data set [3] (S. No. 08 Mt-); 4.0 µg/mL in [4]; 32 µg/mL in [5]; 4.0 µg/mL in data set [6]. Also, the MIC is 8.0 µg/mL in data set [7]; greater than 32 µg/mL in data set [8] (S. No. 15 Mt-); 16 µg/mL in data set [9]; greater than 32 µg/mL in data set [10]; 2.0 µg/mL in [11]; 2.0 µg/mL in data set [12]. The MIC in data set [13] is 4.0 µg/mL; in data set [14] (S. No. 23 Mt-) it was greater than 32 µg/mL; in data set [15] (S. No. 10 Mt-), greater than 32 µg/mL; in data set [16], greater than 32 µg/mL; in data set [17] it was 1.0 µg/mL.

Take `NNC(=O)c1ccncc1` [INH]: the MIC is 4.0 µg/mL in data set [1]; greater than 32 µg/mL in data set [2] (S. No. 13 Mt-); greater than 32 µg/mL in data set [3] (S. No. 08 Mt-); 16 µg/mL in data set [4]; 8.0 µg/mL in data set [5]; 1.0 µg/mL in data set [6]. For the same compound, the MIC in data set [7] was 4.0 µg/mL; in data set [8] (S. No. 15 Mt-) it was 8.0 µg/mL; in data set [9], 32 µg/mL; in data set [10], 4.0 µg/mL; in data set [11], greater than 32 µg/mL; in data set [12] it was 0.25 µg/mL. The MIC is 2.0 µg/mL in data set [13]; greater than 32 µg/mL in data set [14] (S. No. 23 Mt-); greater than 32 µg/mL in data set [15] (S. No. 10 Mt-); greater than 32 µg/mL in [16]; 32 µg/mL in [17].

Turning to `CC(=O)NC[C@H]1CN(c2ccc(N3CCOCC3)c(F)c2)C(=O)O1` [Linezolid, reference compound], the MIC is greater than 32 µg/mL in data set [2] (setting [25]); 16 µg/mL (≈ 47.4 µM) in data set [18]; greater than 32 µg/mL in data set [3] (setting [26]); 16 µg/mL (≈ 47.4 µM) in data set [19]; 32 µg/mL in [5] (setting [27]); 4 µg/mL in data set [6] (setting [27]). In addition, the MIC in data set [20] (Moraxella, M6) was determined as 4 µg/mL (≈ 11.9 µM); in data set [8] (setting [28]) it was 32 µg/mL; in data set [21] it was 16 µg/mL (≈ 47.4 µM); in data set [22], 16 µg/mL (≈ 47.4 µM); in data set [11] (setting [27]), 1 µg/mL; in [13] (setting [24]) it was 8 µg/mL. Further, the MIC in data set [23] is 1 µg/mL (≈ 2.96 µM); in data set [14] (setting [29]), 8 µg/mL; in data set [15] (setting [30]) it was 32 µg/mL.
